In patent US20090208425A1, “TRANSMUCOSAL ADMINISTRATION OF 2,3-DIMETHOXY-5-METHYL-6-(10-HYDROXYDECYL)-1,4-BENZOQUINONE” (SANTHERA PHARMACEUTICALS (SCHWEIZ) AG, priority 2006, published 2009):
Like-named read-outs stand apart in the source and are kept apart here.

Key:
[1] = 536 patients, up to 360 mg idebenone t.i.d.; cited from earlier work
[2] = First-pass hepatic metabolism of idebenone after oral administration; format: in vivo; details: after absorption in the gut (oral administration)
Source text: As a lipophilic compound idebenone is well absorbed in the gastrointestinal tract after conventional oral administration, which is the normal route for administering said compound. Dosage forms such as tablets or capsules have been used in clinical trials and as marketed product. In the course of our investigations on the pharmacological profile of idebenone, we discovered that the compound, after being absorbed in the gut, is metabolized very quickly during its first passage through the liver (“first-pass-effect”). […] Hepatic metabolism of idebenone results in side chain oxidation, reduction of the quinone ring, sulphate and glucuronide conjugation and subsequent renal excretion. The high first-pass-effect leads to a fast reduction of pharmacologically active plasma levels of free idebenone. Because of this strong first pass metabolism, oral administration of idebenone requires high doses of the compound to achieve pharmacologically efficacious plasma levels in the body. Said high doses can result in unwanted side effects such as diarrhea.

[3] = Pharmacokinetics after sublingual (oromucosal) vs. oral delivery of idebenone micro-emulsion in dogs; format: in vivo, Beagle dogs; details: for Cmax / Tmax / AUC(0-t): beagle, dog, mean; for AUC(0-t): read-out: AUC0-480 of idebenone (converted)
Description: Quantification of idebenone was performed by liquid chromatography (LC) coupled on-line with tandem mass spectrometry (MS/MS). Calibration samples were prepared in human plasma and quality control (QC) samples were prepared in dog plasma.
150 μl of dog plasma were treated with 10 μl of an EDTA solution, prepared by dissolution of 1245 mg EDTA-potassium salt in 33 ml of 1M NH4OAc, and 300 μl of Methanol. After vigorous shaking, samples were centrifuged for 45 minutes with 1960 RCF at 4° C. A 50 μl aliquot of the supernatant was injected into the LC-MS/MS system. All unknown, calibration and QC samples were subjected to the same assay procedure.
Idebenone was separated and quantified by HPLC-MS/MS: For HPLC, a Synergi™ 4μ MAX-RP (50×2 mm) column (Phenomenex, Schlieren, Switzerland) was used. Column temperature: 50° C. Mobile phase A: water+30 mM NH4OAc; mobile phase B: MeOH/H2O 100/3 (v/v)+30 mM NH4OAc, gradient elution (table 4). Flow: 250 μl/min and 400 μl/min.
Once separated, idebenone was quantified by ESI-MS/MS (API 4000, Perkin-Elmer-Europe BV, Rotkreuz, Switzerland) in positive mode.
Idebenone conjugates such as glucuronates and sulphates have been quantified after acidic hydrolysis as described by R. Artuch, C. Colomé, M. A. Vilaseca, A. Aracil. M. Pineda, J. Neurosci. Meth. 115 (2002), 63-66.
Plasma levels of idebenone were studied after the administration of a micro-emulsion, prepared as described in example 1, to dogs (n=3). The sublingual administration of 4 mg/kg was compared with 40 mg/kg oral administration in a cross-over design. Blood samples were collected for 8 hours after administration. Concentrations of idebenone in plasma were measured by HPLC-MS/MS as described in example 4 and pharmacokinetic parameters were calculated.
The pharmacokinetic analysis included maximum plasma concentration (Cmax), the time when maximum plasma concentration was observed (Tmax), and the area under the plasma concentrations versus time curve from time 0 h to 480 min (AUC0-480min). The relative bioavailability of idebenone after sublingual administration compared to the oral administration was calculated for each dog from normalized (1 mg/kg) AUC values. The AUC ratios of the metabolites were also calculated. In addition, Cmax ratios, normalized to a 1 mg/kg dose, were calculated.

[4] = 4 mg/kg oro-mucosal (sublingual), micro-emulsion of example 1, dogs n=3, plasma
[5] = 40 mg/kg oral (p.o.), dogs n=3, plasma
[6] = oromucosal (4 mg/kg) vs. oral (40 mg/kg), normalized to a 1 mg/kg dose, dogs

For `COC1=C(OC)C(=O)C(CCCCCCCCCCO)=C(C)C1=O` [idebenone, 2,3-dimethoxy-5-methyl-6-(10-hydroxydecyl)-1,4-benzoquinone], the “treatment emergent adverse events compared to placebo” value [1] is listed as “no treatment emergent adverse events except some gastrointestinal irritations as well as a slight increase in orthopedic events”, the “idebenone metabolized during its first passage through the liver” value [2] is listed as “more than 98%” and the Cmax [3, 4] is listed as 106 ng/mL. For the same compound, the Tmax [3, 4] was 6.3 min, the AUC(0-t) [3, 4] was 21.1 ng·h/mL and the Cmax [3, 5] was 31.9 ng/mL. For the same compound, the Tmax [3, 5] was 22.7 min, the AUC(0-t) [3, 5] was 18 ng·h/mL and the “AUC ratio, idebenone (normalized for dose)” value [3, 6] was 11.1. For the same compound, the “Cmax ratio, idebenone (normalized for dose)” value [3, 6] was 36.8.
